# ChEMBL document CHEMBL1156124, “Assessment of the putative binding conformation of a pyrazolopyridine class of inhibitors of MAPKAPK2 using computational studies” (Eur J Med Chem, 2010)
# Molecular target: MAP kinase-activated protein kinase 2 (Homo sapiens) (UniProt P49137)
# Assay: Inhibition of MK2
# Sequence of MAP kinase-activated protein kinase 2 (Homo sapiens) (P49137 whole entry, looked up): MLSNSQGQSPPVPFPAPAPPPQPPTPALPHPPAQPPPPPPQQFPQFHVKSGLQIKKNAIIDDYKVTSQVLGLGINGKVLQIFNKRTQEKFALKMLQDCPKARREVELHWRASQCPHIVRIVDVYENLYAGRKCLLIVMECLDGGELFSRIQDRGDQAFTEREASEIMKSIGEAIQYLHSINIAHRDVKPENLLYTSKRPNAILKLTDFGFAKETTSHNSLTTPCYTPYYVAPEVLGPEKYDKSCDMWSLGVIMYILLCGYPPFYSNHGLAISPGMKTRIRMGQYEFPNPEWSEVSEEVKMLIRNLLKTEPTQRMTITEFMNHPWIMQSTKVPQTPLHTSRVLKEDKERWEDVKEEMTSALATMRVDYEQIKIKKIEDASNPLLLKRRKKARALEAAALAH
row,SMILES,Activity [µM]
1,CCOc1ccc(Nc2c(C)c(NCCC3CCCN3)c(C#N)c3ccnn23)cc1 (centres undefined),1
2,CCOc1ccc(Nc2c(-c3ccccc3)c(NC3CCCNC3)c(C#N)c3ccnn23)cc1 (centres undefined),0.2
3,CCOc1ccc(Nc2c(C)c(NCC3CCCN3)c(C#N)c3ccnn23)cc1 (centres undefined),1
4,CCOc1ccc(Nc2c(C)c(NCCC3CCCN3C)c(C#N)c3ccnn23)cc1 (centres undefined),10
5,CCOc1ccc(Nc2c(C)c(NCCCCCN)c(C#N)c3ccnn23)cc1,0.2
6,CCOc1ccc(Nc2c(C3CC3)c(N[C@H]3CC[C@H](N)CC3)c(C#N)c3ccnn23)cc1,< 0.2
7,CCOc1ccc(Nc2c(C)c(N[C@H]3CC[C@H](NCc4ccccc4)CC3)c(C#N)c3ccnn23)cc1,0.2
8,NC(=O)n1ncc2ccccc21,< 150
9,CCOc1ccc(Nc2c(C)c(N[C@H]3CC[C@H](NCC4CCCCC4)CC3)c(C#N)c3ccnn23)cc1,0.2
10,CCOc1ccc(Nc2c(C)c(N[C@H]3CC[C@H](N)CC3)c(C#N)c3ccnn23)cc1,< 0.2
11,CCOc1ccc(Nc2c(C(C)C)c(N[C@H]3CC[C@H](N)CC3)c(C#N)c3ccnn23)cc1,< 0.2
12,CCOc1ccc(Nc2c(C)c(N[C@H]3CC[C@H](NCCc4ccccc4)CC3)c(C#N)c3ccnn23)cc1,0.2
13,CCOc1ccc(Nc2cc(N[C@@H]3CCCNC3)c(C#N)c3ccnn23)cc1,0.2
14,CCOc1ccc(Nc2c(CC(C)C)c(N[C@@H]3CCCNC3)c(C#N)c3ccnn23)cc1,< 0.2
15,CCOc1ccc(Nc2c(C)c(OC3CCC(N)CC3)nc3ccnn23)cc1 (centres undefined),0.2
16,COCCOc1ccc(Nc2c(C)c(N[C@@H]3CCCNC3)c(C#N)c3ccnn23)cc1,< 0.2
17,CCOc1ccc(Nc2c(C)c(N[C@H]3CC[C@H](NCC(C)C)CC3)c(C#N)c3ccnn23)cc1,< 0.2
18,Cc1c(N[C@@H]2CCCNC2)c(C#N)c2ccnn2c1Nc1nc2ccccc2s1,< 0.2
19,Cc1c(N[C@@H]2CCCNC2)c(C#N)c2ccnn2c1Nc1ccccc1,< 0.2
20,COCCOc1ccc(Nc2c(C)c(N[C@H]3CCNC3)c(C#N)c3ccnn23)cc1,0.2
21,CCOc1ccc(Nc2c(C)c(NCCCCCCN)c(C#N)c3ccnn23)cc1,10
22,CCOc1ccc(Nc2c(C)c(OCCN)nc3ccnn23)cc1,10
23,CCOc1ccc(Nc2c(C3CC3)c(N[C@@H]3CCCNC3)c(C#N)c3ccnn23)cc1,0.2
24,CCOc1ccc(Nc2c(CC)c(N[C@@H]3CCCNC3)c(C#N)c3ccnn23)cc1,< 0.2
25,CCOc1ccc(Nc2c(C)c(NC3CCC(NCc4ccccc4)CC3)c(C#N)c3ccnn23)cc1 (centres undefined),0.2
26,N#Cc1c(N[C@@H]2CCCNC2)cc(Nc2ccc(-c3ccccc3)cc2)n2nccc12,0.2
27,CCOc1ccc(Nc2c(C)c(NCCCN)c(C#N)c3ccnn23)cc1,0.2

row,SMILES,Activity [µM]
1,CCOc1ccc(Nc2c(C)c(NC3CCNCC3)c(C#N)c3ccnn23)cc1,0.2
2,CCOc1ccc(Nc2c(C)c(N[C@H]3CC[C@H](NCCCc4ccccc4)CC3)c(C#N)c3ccnn23)cc1,0.2
3,CCOc1ccc(Nc2c(C)c(N[C@H]3CCCNC3)c(C#N)c3ccnn23)cc1,< 0.2
4,CCOc1ccc(Nc2c(C)c(NC3CCCC(N)C3)c(C#N)c3ccnn23)cc1 (centres undefined),1
5,CCOc1ccc(Nc2c(C)c(NCCCNC3CCCCC3)c(C#N)c3ccnn23)cc1,1
6,N#Cc1c(N[C@H]2CC[C@H](N)CC2)cc(Nc2nc3ccccc3s2)n2nccc12,0.2
7,N#Cc1c(N[C@@H]2CCCNC2)cc(Nc2ccccc2Cl)n2nccc12,0.2
8,CCOc1ccc(Nc2c(C)c(NC3CNCc4ccccc43)c(C#N)c3ccnn23)cc1 (centres undefined),1
9,Cc1c(N[C@@H]2CCCNC2)c(C#N)c2ccnn2c1NCc1nc2ccccc2s1,< 0.2
10,Cc1c(N[C@H]2CC[C@H](N)CC2)c(C#N)c2ccnn2c1Nc1ccc(-c2ccccc2)cc1,< 0.2
11,Cc1c(N[C@H]2CC[C@H](N)CC2)c(C#N)c2ccnn2c1NOc1ccccc1,0.2
12,CCOc1ccc(Nc2c(CCO)c(N[C@@H]3CCCNC3)c(C#N)c3ccnn23)cc1,< 0.2
13,CCOc1ccc(Nc2c(C)c(NCC3CCNC3)c(C#N)c3ccnn23)cc1 (centres undefined),1
14,CCOc1ccc(Nc2c(C)c(N[C@@H]3CCCC[C@H]3N)c(C#N)c3ccnn23)cc1,10
15,CCOc1ccc(Nc2c(C)c(NCC3CCCNC3)c(C#N)c3ccnn23)cc1 (centres undefined),1
16,CCOc1ccc(Nc2c(C)c(NCCN)c(C#N)c3ccnn23)cc1,0.2
17,COCCOc1ccc(Nc2c(C)c(N[C@H]3CC[C@H](N)CC3)c(C#N)c3ccnn23)cc1,< 0.2
18,C=CCc1c(N[C@@H]2CCCNC2)c(C#N)c2ccnn2c1Nc1ccc(OCC)cc1,< 0.2
19,CCOc1ccc(Nc2c(C)c(NCC3CCCCN3)c(C#N)c3ccnn23)cc1 (centres undefined),1
20,CCOc1ccc(Nc2c(C)c(NC3CCC(N)CC3)c(C#N)c3ccnn23)cc1 (centres undefined),< 0.2
21,CCCc1c(N[C@@H]2CCCNC2)c(C#N)c2ccnn2c1Nc1ccc(OCC)cc1,< 0.2
22,c1ccn2nccc2c1,< 0.2
23,CCOc1ccc(Nc2c(C)c(NCCC3CCCCN3)c(C#N)c3ccnn23)cc1 (centres undefined),10
24,CCOc1ccc(Nc2c(CC)c(N[C@H]3CC[C@H](N)CC3)c(C#N)c3ccnn23)cc1,< 0.2
25,CCOc1ccc(Nc2c(C)c(OC3CCCNC3)nc3ccnn23)cc1 (centres undefined),1
26,N#Cc1c(N[C@H]2CC[C@H](N)CC2)cc(Nc2ccccc2Cl)n2nccc12,0.2
27,CCOc1ccc(Nc2c(C)c(NC3CCCCC3N)c(C#N)c3ccnn23)cc1 (centres undefined),10
